Assay results as given in ChEMBL document CHEMBL1153245, “A profile of the in vitro anti-tumor activity of imidazolium-based ionic liquids” (2010).

How the values were obtained:
Type in all cases: functional
[1] = system: COLO 205; test: Anticancer activity against human COLO205 cells after 48 hrs by sulforhodamine B assay
[2] = system: SR; test: Anticancer activity against human SR cells after 48 hrs by sulforhodamine B assay; details: for CC50: read-out: LC50 (the source's name)
[3] = system: OVCAR-5; test: Anticancer activity against human OVCAR5 cells after 48 hrs by sulforhodamine B assay
[4] = system: HCT-116; test: Anticancer activity against human HCT116 cells assessed cell growth at 10 uM after 48 hrs by sulforhodamine B assay relative to control
[5] = system: SW-620; test: Anticancer activity against human SW620 cells assessed cell growth at 10 uM after 48 hrs by sulforhodamine B assay relative to control
[6] = system: HCT-116; test: Anticancer activity against human HCT116 cells after 48 hrs by sulforhodamine B assay
[7] = system: SW-620; test: Anticancer activity against human SW620 cells after 48 hrs by sulforhodamine B assay
[8] = system: UACC-62; test: Anticancer activity against human UACC62 cells after 48 hrs by sulforhodamine B assay
[9] = system: KM12; test: Anticancer activity against human KM12 cells assessed cell growth at 10 uM after 48 hrs by sulforhodamine B assay relative to control
[10] = system: HCT-15; test: Anticancer activity against human HCT15 cells assessed cell growth at 10 uM after 48 hrs by sulforhodamine B assay relative to control
[11] = system: OVCAR-8; test: Anticancer activity against human OVCAR8 cells assessed cell growth at 10 uM after 48 hrs by sulforhodamine B assay relative to control
[12] = system: SF-268; test: Anticancer activity against human SF268 cells after 48 hrs by sulforhodamine B assay
[13] = system: TK-10; test: Anticancer activity against human TK10 cells assessed cell growth at 10 uM after 48 hrs by sulforhodamine B assay relative to control
[14] = system: NCI-H460; test: Anticancer activity against human NCI-H460 cells after 48 hrs by sulforhodamine B assay
[15] = system: SF-295; test: Anticancer activity against human SF295 cells assessed cell growth at 10 uM after 48 hrs by sulforhodamine B assay relative to control
[16] = system: NCI/ADR-RES; test: Anticancer activity against human NCI/ADR-RES cells after 48 hrs by sulforhodamine B assay
[17] = system: SK-MEL-28; test: Anticancer activity against human SK-MEL-28 cells after 48 hrs by sulforhodamine B assay
[18] = system: OVCAR-3; test: Anticancer activity against human OVCAR-3 cells after 48 hrs by sulforhodamine B assay
[19] = system: ACHN; test: Anticancer activity against human ACHN cells after 48 hrs by sulforhodamine B assay
[20] = system: MDA-MB-468; test: Anticancer activity against human MDA-MB-468 cells after 48 hrs by sulforhodamine B assay
[21] = system: HL-60(TB); test: Anticancer activity against human HL-60(TB) cells after 48 hrs by sulforhodamine B assay; details: for CC50: read-out: LC50 (the source's name)
[22] = system: DU-145; test: Anticancer activity against human DU145 cells after 48 hrs by sulforhodamine B assay
[23] = system: A498; test: Anticancer activity against human A498 cells assessed cell growth at 10 uM after 48 hrs by sulforhodamine B assay relative to control
[24] = system: NCI-H322M; test: Anticancer activity against human NCI-H322M cells after 48 hrs by sulforhodamine B assay
[25] = system: HCT-15; test: Anticancer activity against human HCT15 cells after 48 hrs by sulforhodamine B assay
[26] = system: MDA-MB-435; test: Anticancer activity against human MDA-MB-435 cells after 48 hrs by sulforhodamine B assay; details: for CC50: read-out: LC50 (the source's name)
[27] = system: MDA-MB-435; test: Anticancer activity against human MDA-MB-435 cells assessed cell growth at 10 uM after 48 hrs by sulforhodamine B assay relative to control
[28] = system: SK-OV-3; test: Anticancer activity against human SKOV3 cells assessed cell growth at 10 uM after 48 hrs by sulforhodamine B assay relative to control
[29] = system: NCI-H226; test: Anticancer activity against human NCI-H226 cells after 48 hrs by sulforhodamine B assay
[30] = system: Malme-3M; test: Anticancer activity against human MALME-3M cells after 48 hrs by sulforhodamine B assay
[31] = system: SF-268; test: Anticancer activity against human SF268 cells assessed cell growth at 10 uM after 48 hrs by sulforhodamine B assay relative to control
[32] = system: A498; test: Anticancer activity against human A498 cells after 48 hrs by sulforhodamine B assay
[33] = system: SF-295; test: Anticancer activity against human SF295 cells after 48 hrs by sulforhodamine B assay
[34] = system: T47D; test: Anticancer activity against human T47D cells after 48 hrs by sulforhodamine B assay
[35] = system: OVCAR-5; test: Anticancer activity against human OVCAR5 cells assessed cell growth at 10 uM after 48 hrs by sulforhodamine B assay relative to control
[36] = system: MCF7; test: Anticancer activity against human MCF7 cells after 48 hrs by sulforhodamine B assay
[37] = system: MCF7; test: Anticancer activity against human MCF7 cells assessed cell growth at 10 uM after 48 hrs by sulforhodamine B assay relative to control
[38] = system: T47D; test: Anticancer activity against human T47D cells assessed cell growth at 10 uM after 48 hrs by sulforhodamine B assay relative to control
[39] = system: SN12C; test: Anticancer activity against human SN12C cells after 48 hrs by sulforhodamine B assay
[40] = Anticancer activity against human Hs 578T cells after 48 hrs by sulforhodamine B assay
[41] = system: SK-OV-3; test: Anticancer activity against human SKOV3 cells after 48 hrs by sulforhodamine B assay

Which results are given for CCCCCCCCCCCC[n+]1ccn(C)c1.F[B-](F)(F)F?
GI50 [1]: 3.41 µM; GI50 [2]: 1.06 µM; CC50 [2]: > 100 µM; GI50 [3]: 7.49 µM; Activity [4]: 16.24%; Activity [5]: 54.63%; GI50 [6]: 2.36 µM; GI50 [7]: 7.25 µM; GI50 [8]: 4.25 µM; Activity [9]: 21.76%; Activity [10]: 82.38%; Activity [11]: 13.12%; GI50 [12]: 5.98 µM; Activity [13]: 24.24%; GI50 [14]: 4.29 µM; Activity [15]: 34.1%; GI50 [16]: 39.7 µM; GI50 [17]: 10.1 µM; GI50 [18]: 3.33 µM; GI50 [19]: 10 µM; GI50 [20]: 0.556 µM; GI50 [21]: 0.324 µM; CC50 [21]: 9.93 µM; GI50 [22]: 10.9 µM; Activity [23]: 35.81%; GI50 [24]: 24.6 µM; GI50 [25]: 18.1 µM; GI50 [26]: 2.15 µM; CC50 [26]: 77.5 µM; Activity [27]: 20.42%; Activity [28]: 47.29%; GI50 [29]: 4.62 µM; GI50 [30]: 5.06 µM; Activity [31]: 66.79%; GI50 [32]: 7.53 µM; GI50 [33]: 2.93 µM; GI50 [34]: 4.31 µM; Activity [35]: 48.72%; GI50 [36]: 1.95 µM; Activity [37]: -1.79%; Activity [38]: 11.08%; GI50 [39]: 3.35 µM; GI50 [40]: 6.11 µM; GI50 [41]: 5.97 µM

With CCCCCCCCCCCCCCCC[n+]1ccn(C)c1.[Cl-] as the compound, how does the GI50 ([1]; Homo sapiens, COLO 205, 48 h) read?
Its GI50 is 0.343 µM.

And the CC50 ([1]; Homo sapiens, COLO 205, 48 h, read-out: LC50 (the source's name))?
Its CC50 is over 100 µM.

And the GI50 ([2]; Homo sapiens, SR, 48 h)?
Its GI50 is 0.1 µM.

What about the CC50 ([2]; Homo sapiens, SR, 48 h) of the same compound?
The CC50 was 4.38 µM.

And the GI50 ([3]; Homo sapiens, OVCAR-5, 48 h)?
The GI50 was 0.912 µM.

What about the CC50 ([3]; Homo sapiens, OVCAR-5, 48 h, read-out: LC50 (the source's name)) of the same compound?
The CC50 was 7.24 µM.

What about the Activity [4] of the same compound?
Its Activity is -87.23%.

And the Activity [5]?
Its Activity is -66.67%.

What about the GI50 ([6]; Homo sapiens, HCT-116, 48 h) of the same compound?
The GI50 was 0.349 µM.

And the CC50 ([6]; Homo sapiens, HCT-116, 48 h, read-out: LC50 (the source's name))?
Its CC50 is 6.21 µM.

And the GI50 ([7]; Homo sapiens, SW-620, 48 h)?
The GI50 was 0.461 µM.

What about the GI50 ([8]; Homo sapiens, UACC-62, 48 h) of the same compound?
The GI50 was 1.04 µM.

What about the Activity [9] of the same compound?
Its Activity is -83.88%.

And the Activity [10]?
The Activity was 9.85%.

What about the Activity [11] of the same compound?
Its Activity is -53.71%.

What about the GI50 ([12]; Homo sapiens, SF-268, 48 h) of the same compound?
The GI50 was 1.02 µM.

What about the CC50 ([12]; Homo sapiens, SF-268, 48 h, read-out: LC50 (the source's name)) of the same compound?
Its CC50 is 4.93 µM.

What about the Activity [13] of the same compound?
Its Activity is -80.37%.

What about the GI50 ([14]; Homo sapiens, NCI-H460, 48 h) of the same compound?
The GI50 was 0.498 µM.

And the Activity [15]?
Its Activity is -39.48%.

And the GI50 ([16]; Homo sapiens, NCI/ADR-RES, 48 h)?
Its GI50 is 2.1 µM.

And the GI50 ([17]; Homo sapiens, SK-MEL-28, 48 h)?
Its GI50 is 0.948 µM.

And the GI50 ([18]; Homo sapiens, OVCAR-3, 48 h)?
Its GI50 is 0.414 µM.

What about the GI50 ([19]; Homo sapiens, ACHN, 48 h) of the same compound?
The GI50 was 0.832 µM.

What about the GI50 ([20]; Homo sapiens, MDA-MB-468, 48 h) of the same compound?
Its GI50 is 0.092 µM.

And the GI50 ([21]; Homo sapiens, HL-60, 48 h)?
The GI50 was 0.131 µM.

And the CC50 ([21]; Homo sapiens, HL-60, 48 h)?
The CC50 was 0.816 µM.

And the GI50 ([22]; Homo sapiens, DU-145, 48 h)?
Its GI50 is 0.719 µM.

And the CC50 ([22]; Homo sapiens, DU-145, 48 h, read-out: LC50 (the source's name))?
Its CC50 is 4.48 µM.

And the Activity [23]?
The Activity was -65.31%.

And the GI50 ([24]; Homo sapiens, NCI-H322M, 48 h)?
Its GI50 is 1.74 µM.

What about the GI50 ([25]; Homo sapiens, HCT-15, 48 h) of the same compound?
The GI50 was 1 µM.

What about the CC50 ([25]; Homo sapiens, HCT-15, 48 h, read-out: LC50 (the source's name)) of the same compound?
Its CC50 is 4.65 µM.

What about the GI50 ([26]; Homo sapiens, MDA-MB-435, 48 h) of the same compound?
Its GI50 is 0.482 µM.

What about the CC50 ([26]; Homo sapiens, MDA-MB-435, 48 h) of the same compound?
Its CC50 is 6.98 µM.

What about the Activity [27] of the same compound?
Its Activity is -55.77%.

What about the Activity [28] of the same compound?
The Activity was -33.78%.

And the GI50 ([29]; Homo sapiens, NCI-H226, 48 h)?
Its GI50 is 0.861 µM.

And the GI50 ([30]; Homo sapiens, Malme-3M, 48 h)?
Its GI50 is 0.549 µM.

What about the Activity [31] of the same compound?
The Activity was -22.98%.

What about the GI50 ([32]; Homo sapiens, A498, 48 h) of the same compound?
Its GI50 is 1.11 µM.

And the CC50 ([32]; Homo sapiens, A498, 48 h, read-out: LC50 (the source's name))?
Its CC50 is 7.39 µM.

What about the GI50 ([33]; Homo sapiens, SF-295, 48 h) of the same compound?
Its GI50 is 0.383 µM.

What about the CC50 ([33]; Homo sapiens, SF-295, 48 h, read-out: LC50 (the source's name)) of the same compound?
The CC50 was 5.02 µM.

What about the GI50 ([34]; Homo sapiens, T47D, 48 h) of the same compound?
Its GI50 is 0.564 µM.

And the CC50 ([34]; Homo sapiens, T47D, 48 h, read-out: LC50 (the source's name))?
The CC50 was over 100 µM.

What about the Activity [35] of the same compound?
The Activity was -67.51%.

And the GI50 ([36]; Homo sapiens, MCF7, 48 h)?
The GI50 was 0.431 µM.

And the Activity [37]?
Its Activity is -79.92%.

What about the Activity [38] of the same compound?
The Activity was -0.13%.

And the GI50 ([39]; Homo sapiens, SN12C, 48 h)?
Its GI50 is 1 µM.

And the GI50 ([40]; Homo sapiens, Hs-578T, 48 h)?
The GI50 was 0.538 µM.

And the CC50 ([40]; Homo sapiens, Hs-578T, 48 h, read-out: LC50 (the source's name))?
Its CC50 is 6.11 µM.

And the GI50 ([41]; Homo sapiens, SK-OV-3, 48 h)?
The GI50 was 1.27 µM.

And the CC50 ([41]; Homo sapiens, SK-OV-3, 48 h, read-out: LC50 (the source's name))?
The CC50 was over 100 µM.
